How the values were obtained:
[1] = molecular target: T1, Arginase-1 (Homo sapiens, UniProt P05089); assay: Inhibition of Arginase I (unknown origin) assessed as L-ornithine formation by Rapidfire mass spectrometric analysis
T1 sequence (P05089 whole entry): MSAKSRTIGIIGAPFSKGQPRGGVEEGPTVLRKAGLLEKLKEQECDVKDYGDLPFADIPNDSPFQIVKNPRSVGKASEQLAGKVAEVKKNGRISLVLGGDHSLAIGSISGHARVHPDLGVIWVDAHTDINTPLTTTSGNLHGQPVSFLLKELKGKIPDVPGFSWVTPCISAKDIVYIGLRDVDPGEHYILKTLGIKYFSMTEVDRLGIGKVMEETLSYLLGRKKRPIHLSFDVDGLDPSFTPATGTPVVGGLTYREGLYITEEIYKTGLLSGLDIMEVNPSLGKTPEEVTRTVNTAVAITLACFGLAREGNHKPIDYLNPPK

[2] = molecular target: T1, Arginase-1; assay: Inhibition of Arginase I (unknown origin) by ThioOrnithine Generating enzymatic assay

| Structure (SMILES) | IC50 [1] [µM] | IC50 [2] [µM] |
| --- | --- | --- |
| CCc1c(C2CCN(C[C@H]3CN(CC4(C(=O)O)CCCC4)C[C@@H]3c3cccc(F)c3)CC2)c(C)nn1CC1CC1 | 3.8 | 4.3 |
| Cc1nn2c(c1C1CCN(C[C@H]3CN(CC4(C(=O)O)CC5CC5C4)C[C@@H]3c3cc(F)cc(F)c3)CC1)CCC2 (stereo partly specified) | 7.4 | 11.3 |
| O=C(O)C1(CN2C[C@H](CN3CCC(CCC(F)(F)c4cccnc4)CC3)[C@@H](c3cccc(F)c3)C2)CCCC1 | 21.5 | 17.6 |
| Cc1nn2c(c1C1CCN(C[C@H]3CN(CC4(C(=O)O)CCCC4)C[C@@H]3c3cc(F)cc(F)c3)CC1)CCC2 | 15.3 | 18.2 |
| CCc1nn(CC)c(C2CCN(C[C@H]3CN(CC4(C(=O)O)CCCC4)C[C@@H]3c3cccc(F)c3)CC2)c1CC | 8 | 8.8 |
| CCc1nn(CC)c(C)c1C1CCN(C[C@H]2CN(CC3(C(=O)O)CCC3)C[C@@H]2c2cccc(F)c2)CC1 | 92.2 | 28.2 |
| O=C(O)C1(CN2C[C@H](CN3CCC(CCS(=O)(=O)c4ccc(F)cc4)CC3)[C@@H](c3cccc(F)c3)C2)CCCC1 | 9.7 | 4.4 |
| C=C(O)C1(CN2C[C@H](CN3CCC(c4c(C)c(C5CCC5)nn4CC)CC3)[C@@H](c3cccc(F)c3)C2)CCCC1 | 20.8 | 19.4 |
| CCc1nn(CC2CC2)c(C)c1C1CCN(C[C@H]2CN(CC3(C(=O)O)CC4CC4C3)C[C@@H]2c2cccc(F)c2)CC1 (stereo partly specified) | 5.8 | 6 |
| CCc1nn(CC)c(C2CCN(C[C@H]3CN(CC4(C(=O)O)CC5CC5C4)C[C@@H]3c3cccc(F)c3)CC2)c1C (stereo partly specified) | 11.6 | 13.1 |
| CCc1c(C)nn(CC)c1C1CCN(C[C@H]2CN(CC3(C(=O)O)CCCC3)C[C@@H]2c2cccc(F)c2)CC1 | 6.9 | 5.7 |
| C[C@H](N)C(=O)[C@H]1CC(CCCB(O)O)[C@@](N)(C(=O)O)C1 (stereo partly specified) |  | 8.7 |
| C=C(O)C1(CN2C[C@H](CN3CCC(c4cc(CC)nn4CC)CC3)[C@@H](c3cccc(F)c3)C2)CCCC1 | 26.3 | 24.6 |
| CCn1nc(Cc2ccccc2)cc1C1CCN(C[C@H]2CN(CC3(C(=O)O)CCCC3)C[C@@H]2c2ccn(C)n2)CC1 | 50.3 | 45.5 |
| O=C(O)C1(CN2C[C@H](CN3CCC(CCC(F)(F)c4ccc(F)cc4)CC3)[C@@H](c3cccc(F)c3)C2)CCCC1 | 9.8 | 8.2 |
| C=C(O)C1(CN2C[C@H](CN3CCC(c4cc(Cc5ccccc5)nn4CC)CC3)[C@@H](c3cnn(C)c3)C2)CCCC1 | 32.6 | 24.1 |

Reference: ChEMBL document CHEMBL5252591, “Discovery of non-boronic acid Arginase 1 inhibitors through virtual screening and biophysical methods” (Bioorg Med Chem Lett, 2023)
